# Results as given in US20110135755A1, “Combination therapies for treating neoplastic disease” (priority 2009, published 2011).
# “Also recorded” adds a separate entry of the source.
# Legend:
# [1] = Element concentrations in kidney samples of treated rats; format: in vivo; conditions: rat kidney; cisplatin single iv 6.5 mg/kg; CV247 oral 3 ml/kg bd, fourteen days
# Text: Liver and kidney samples were subsequently examined to see if CV 247 protected the rats from the accumulation of platinum and platinum free radicals, and what kind of metal ion concentration changes occur after treatment.
# [2] = system: HCT 8 and T47D cell lines; experiment: MTT, SRB and CVE assays with exposure of up to 10 days; format: cell-based; conditions: 18000 and 26000 cells/well
# Text: Graphs depicting the results obtained are shown in FIGS. 6 to 11 (it should be noted that some graphs have the x axis displaying cancer cell kill, whilst others display cancer cell viability).
smiles,measurement,setting,value
"N.N.[Cl][Pt][Cl] [Cisplatin, cis-diamminedichloroplatinum]",Pt,[1],3.048 ± 0.583
same,effect on cancer cell kill / viability at cisplatin dose of 1 mg,[2]; cisplatin 1 mg alone or with CV247,only a marginal long term benefit; also recorded: effect after 4 days was often reduced
same,effect on cancer cell kill / viability,"[2]; high doses of cisplatin, CV247 alone",cytotoxic
